Results from US20250009844A1, “MATURATION OF MUCOSAL DEFENSE AND GUT/LUNG FUNCTION IN THE PRETERM INFANT” (Novozymes A/S, priority 2017, published 2025).
No end group written: not given here.

Columns and labels:
BALB/c mice [1] = assay: Prophylactic treatment in murine house dust mite driven model of allergic asthma (Example 5); type: in vivo; settings: for Increase of airway resistance (airway hyper responsiveness) / Decrease of pulmonary compliance: vs HDM challenged vehicle
Description: Treatment regime: Female 7-10 weeks old BALB/c mice were randomly allocated into 5study groups one day prior to study start and subcutaneously (SC) sensitized to house dust mite (100 μg HDM in 200 uL saline plus Freund's complete adjuvant in 0.9% saline). The mice were treated with hBD-2 orally and intranasally respectively at a dose of 1.2 mg/kg/day (0.4 mg/kg TID) starting on day 12 in the morning and continued TID at approximately 6 hours intervals. The last dose was administered on day 14 one hour prior to challenge. The total number of doses was 8 doses or a total of […] hBD-2.Mice were then intranasally (IN) challenged with HDM on day 14 (HDM 25 μg in 50 μL of saline) (FIG. 2).
Airway inflammation: At 48 hours post challenge, bronchoalveolar lavage was performed washing the lungs with 3 volumes of cold PBS (0.4; 0.3 and 0.3 mL, total 1 mL). Total and differential leucocyte cell counts were determined on an automated haematological analyser Sysmex XT-2000iV.
Lung function: Starting 48 hours after HDM challenge, measurements of lung resistance and lung compliance were carried out after methacholine challenge (3.125 MCH1; 6.25 MCH2; 12.5 MCH3 and 25 mg/mL MCH4) by anaesthetized, cannulated mice using DSI's Buxco Finepoint RC system. Data are represented as airway resistance at […] methacholine and as dose responsive curves. Lung sampling for cytokine analysis: After completion of every BAL, lungs were removed from the thorax, snap frozen in liquid nitrogen and stored frozen at −80 degrees Celsius until analysis of cytokine concentration of TNF-α, IL-4, IL-5, IL-6, IL-9, IL-13 and IL-33 in lung homogenate by ELISA.

BALB/c mice [2] = assay: Murine model of acute graft versus host disease, oral HD5 (Example 13); type: in vivo
Description: Treatment regime: 22 female BALB/c mice were irradiated with 4.5 Gy (2×498 sec) at intervals of at least 4 hours on day 0. Bone marrow was harvested: hind limbs harvested from 2 female WT C57BL/6 mice aseptically. Skeletal muscle was removed and epiphysis cut away. Lumen of bone flushed with PBS and cells pelleted and taken up. Harvest of T-cells: spleens from 2 female WT C57BL/6 mice were meshed through a […] cell strainer into a PBS filled dish. Cells were taken up in PBS and transferred into a 50 mL falcon tube and spun down. Cells were taken up in 1 mL PBS and 20 μL of CD4 microbead +20 μL CD8 microbeads per spleen added for incubation for 20 min at 4 degrees C. Cells were washed with PBS and applied to MACS separation in order to positively select CD4+ and CD8+ cells. Positively selected T-cells were counted and taken up. Transplantation: directly after the second irradiation, all WT BALB/c recipient mice were injected with 5×1.000.000 BM cells (50 μL) i.v. into the retroorbital venous plexus under isoflurane anesthesia. 22 BALB/c mice were treated with 1.2 mg of HD5/kg BW/day; 1.2 mg of hBD-2/kg BW/day or 100 μL of PBS per day vial oral gavage from day 0-10.
Survival was monitored for 60 days.

[3] = tested on: microbiota of the intestine; assay: Prophylactic high fat diet murine model, 16S microbial analyses (Example 1); type: in vivo, mice
Excerpt: The overall experimental design is shown in FIG. 1, top panel “Prophylactic study”. Mice: Mice were housed in trios, 4 cages per group. Feed intake was registered daily just before lights were turned off at 6 pm. Individual mice were subjected to experimental procedures in altered order both group and cage wise. Mice were kept at room temperature under a 12-hour light/dark cycle at SPF standard conditions. Diets: For dosing, the average weight was estimated to be 25 grams per mouse. Mice eat approximately 3 grams of feed per mouse per day.
Treatment regime: Mice were fed either a high fat diet (HFD) or a low fat (LF) control diet. The HFD contained 4 subgroups; a) hBD-2, b) HD5, c) hBD-2/HD5 and d) standard HFD without supplementation of defensins. Defensin concentration was 1,2 mg hBD-2 per kg mouse per day. HD5 was given in equimolar concentration to hBD-2.
Microbial analyses were carried out to study the microbiota of the intestine. Longitudinal 16S characterization was conducted on 4 paired samples from 60 mice, 240 samples in total. Each mouse was sampled prior to diet change, 1 week post diet change, 4 weeks post diet change and at termination, thus ensuring a thorough characterization of the faecal microbiota as a result of defensin treatment.

[4] = intranasal administration, not statistically significantly different from the control

## human beta defensin 2 (GIGDPVTCLKSGAICHPVFCPRRYKQIGTCGLPGTKCCKKP; ends and bridges not checked; cysteine pairing not given here; listed as Homo sapiens) [hBD-2]
BALB/c mice [1]; intranasal 0.4 mg/kg TID day 12 to day 14, 8 administrations
  Increase of airway resistance (airway hyper responsiveness): effectively inhibited increase of airway resistance
BALB/c mice [1]; intranasal 0.4 mg/kg TID day 12 to day 14
  Decrease of pulmonary compliance: effectively inhibited
BALB/c mice [1]; [4]
  IL-4 concentration in lung tissue homogenate: trend towards lowering
  IL-5 concentration in lung tissue homogenate: trend towards lowering
  IL-6 concentration in lung tissue homogenate: trend towards lowering
  IL-9 concentration in lung tissue homogenate: trend towards lowering
  IL-13 concentration in lung tissue homogenate: trend towards lowering
  TNF-α concentration in lung tissue homogenate: trend towards lowering
BALB/c mice [1]; oral 0.4 mg/kg TID day 12 to day 14, 8 administrations, 48 hours after HDM challenge
  Increase of airway resistance (airway hyper responsiveness): effectively inhibited increase of airway resistance
BALB/c mice [1]; oral 0.4 mg/kg TID day 12 to day 14
  Decrease of pulmonary compliance: effectively inhibited
BALB/c mice [1]; oral administration
  IL-4 concentration in lung tissue homogenate: complete normalization of cytokine concentrations
  IL-5 concentration in lung tissue homogenate: complete normalization of cytokine concentrations
  IL-6 concentration in lung tissue homogenate: complete normalization of cytokine concentrations
  IL-9 concentration in lung tissue homogenate: complete normalization of cytokine concentrations
  IL-13 concentration in lung tissue homogenate: complete normalization of cytokine concentrations
  TNF-α concentration in lung tissue homogenate: complete normalization of cytokine concentrations
BALB/c mice [1]; oral application, 48 hours post challenge
  Neutrophil counts in BALF: significantly inhibited neutrophil counts
BALB/c mice [2]; 1.2 mg/kg BW/day oral gavage day 0-10, HD5 group of 8, PBS six out of eight died
  Animals that had died by day 60: none
BALB/c mice [2]; 22 mice, oral treatment for 10 days
  Mortality: significant reduction of mortality
[3]; colon, prophylactic treatment, p<0.03
  Abundance of Barnesiella: statistically significant increase in abundance of Barnesiella
[3]; colon, prophylactic treatment, p=0.1
  Abundance of Lactobacillus: trend towards lower abundance of Lactobacillus
[3]; prophylactic oral defensin in HFD, 1,2 mg hBD-2 per kg per day, HD5 equimolar, mix 50%+50%
  Microbial presence and abundance (unifrac, genus analysis): affected primarily the microbial presence
